Source: patent publication US8895555B2, “Methods of treating intestinal diseases and inflammatory conditions related to HIV-AIDS” (Bach Pharma, Inc., priority 2009, dated 2014)
Like-named read-outs stand apart in the source and are kept apart here.

Key:
[1] = tested on: MT-4 cells (HIV-infected or uninfected)
Procedure: HIV-1 infection of cultured T lymphoblastoid cells (MT4) causes a dramatic increase in intracellular ROS, and this is associated with cell death.
GVT was added to the cell culture every day for all six days of culture. HIV causes apoptosis of MT-4 cells, measurable when the cells are harvested at 6 dpi.

[2] = tested on: acute intestine infections of different nature
Procedure: Clinical tests were performed on 56 patients suffering from acute intestine infections of different nature, accompanied by intoxication syndrome and diarrhea. All 56 patients had similar clinical manifestations, form and seriousness of the disease. The drug was prescribed to be used according to the following protocol: initial dose, 200 mg intramuscularly; then 3 hours later, a dose of 100 mg; and 3 hours later, a dose of 100 mg (400 mg per day).
In anamnesis of all patients no data of non-endurance or allergic reactions to any remedies was stated. GVT was administered to 54 patients within first hours after admission, before the application of traditional treatment methods, i.e., water-crystalloid solutions, vitamins, spasmolytics, as by acute dysentery and salmonellosis—antibacterial therapy.

[3] = tested on: ts1 virus, a mutant of MoMuLV; settings: mouse, in vivo
Text: GVT® (sodium a-luminol) was provided by Bach-Pharma, Inc., North Andover, Mass. Goat anti-MoMuLV gp70 was from Microbiology Associates, Burlingame, Calif. (this antibody recognizes epitopes shared by the mature gp70 viral envelope protein and the precursor preprotein gPr80^env). Anti-mouse Ki67 was from Vector Laboratories, Burlingame, Calif. Polyclonal and monoclonal anti-mouse TSHI3 were from Cell Signaling (Boston, Mass.) and Dr. John R. Klein's laboratory, respectively. Mand rabbit anti-activated caspase-3 was from Cell Signaling. Mouse monoclonal anti Nrf2 was from R&D systems (Minneapolis, Minn.). FITC and Texas Red-conjugated anti-mouse, rat, rabbit and goat antibodies were from Jackson ImmunoResearch (West Grove, Pa.).
FVB/N mice were obtained from Taconic Farms (Germantown, N.Y.). Breeding FVB/N pairs were housed in sterilized microisolator cages and supplied with autoclaved feed and water ad libitum. The microisolators were kept in an environmentally controlled isolation room. For ts1 infection, four-day-old mice were inoculated intraperitoneally with 0.1 ml of vehicle (mock infection) or with 0.1 ml of a ts1 suspension containing 2×107 infectious units/ml.
For GVT treatment, animals from the control and ts1-infected groups are divided into two groups each […]. The infected mice are then divided again into two groups, one of whose individuals received 0.9% normal saline, intraperitoneally, five continuous days a week, followed by two resting days, until the end of the experiment. At the same time, mice from the other half of the infected animals received freshly prepared GVT, delivered intraperitoneally at 200 mg/kg body weight/day in 0.9% normal saline. The uninfected mice were also divided into two groups, one receiving saline alone, and the other receiving GVT as described above.
At 30 dpi, mice from all groups were sacrificed, and their small intestines (2 cm from the jejunum) processed for Western blotting of the tissues or for frozen section immunohistochemistry. All mice were observed daily for clinical signs of disease, and individuals from all groups were sacrificed at 30 dpi. Intestinal tissues to be used for Western blotting are removed, snap-frozen in liquid nitrogen and stored at −80° C. until use. For immunohistochemistry, intestine segments were snap-frozen in liquid nitrogen in OCT embedding compound. These animal protocols were approved by The University of Texas M.D. Anderson Cancer Center Institutional Animal Care and Use Committee.
Western blotting analysis was performed as described previously. Briefly, whole cell protein was extracted from whole intestines in radioimmunoprecipitation assay buffer (NP40, 0.5% sodium deoxycholate, 0.1% sodium dodecyl sulfate, 0.25 mM phenylmethylsulfonylfluoride, 1 mg/ml aprotinin, leupeptin, and pepstatin A, 1 mM sodium orthovanadate, and 1 mM sodium fluoride in phosphate-buffered saline, or PBS). Protein concentrations were measured using the Bio-Rad Dc protein assay reagent (Bio Rad Laboratories, Hercules, Calif.) as per the manufacturer's instructions. These lysates ([…] total protein per sample) were electrophoresed on 10% SDS-PAGE gels, and then transferred to polyvinylidene difluoride membranes (Millipore Corp, Bedford, Mass.). The membranes were blocked at room temperature for 1 hr in iris-buffered saline, or TBS, with 5% nonfat milk, and incubated with unconjugated primary antibody for 2 hrs, followed by 3 washes with TBS. The blots were then incubated with species-appropriate horseradish peroxidase-conjugated secondary antibody for an additional 1 hr. After three washes, immune complexes were detected by chemiluminescence (NEN Life Science Products, Boston, Mass.). A monoclonal anti-13-actin antibody (Sigma, St. Louis, Mo.) was used as a loading control. Values calculated as the ratio of their normalized values against this number.

[4] = tested on: ts1 virus; settings: for disease course: T cell loss, thymic atrophy, wasting, death: ts1-infected mice treated with GVT
Text: GVT® (monosodium luminol) was provided by Bach-Pharma, Inc., North Andover, Mass. Goat anti-MoMuLV gp70 was from Microbiology Associates, Burlingame, Calif. This antibody recognizes epitopes shared by the mature gp70 viral envelope protein and the precursor preprotein gPr80^env Monoclonal rabbit anti-cleaved caspase-3 was from Cell Signaling (Boston, Mass.). Mouse monoclonal anti-Nrf2 was from R&D systems (Minneapolis, Minn.). Polyclonal anticytokeratin-5 (CK5) and monoclonal anti-cytokeratin-8 (CK8) antibodies were from Covance Research (Richmond, Calif.) and the National Institutes of Health Developmental Studies Hybridoma Bank (Iowa City, Iowa), respectively. F1TC and Texas Red conjugated anti-mouse, rat, rabbit and goat antibodies were from Jackson ImmunoResearch (West Grove, Pa.).
5 (and 6)-chloromethyl-2′,7′-dichlorodihydrofluorescein diacetate (CM-H2DCFDA; Molecular Probes, Eugene, Oreg.; hereafter called DCFDA), is a cell-permeant indicator for intracellular ROS, including hydrogen peroxide and superoxide. The dye itself is non-fluorescent, but when its acetate groups are removed by intracellular esterases, it is oxidized to form a highly fluorescent derivative, carboxydichlorofluorescein. Freshly isolated thymocytes were prepared from uninfected, GVT-only, ts1-only and ts1-GVT-treated mice, at 30 dpi. The thymocytes were incubated with […] of DCFDA, in culture medium (RPMI 1640) at 37° C. for 30 mm. After this loading period, the cells were washed twice with PBS, lysed, and the fluorescence of their contents measured using a Synergy HT multi-detection microplate reader (BioTek Instruments, Inc., Winoski, Vt.). The data are expressed as means±standard deviation (SD) of relative fluorescence units (against a standard curve) for DCFDA-loaded thymocyte lysates for three mice of each treatment group (See FIG. 16).
FVB/N mice were obtained from Taconic Farms (Germantown, N.Y.). Breeding FVB/N pairs were housed in sterilized microisolator cages and supplied with autoclaved feed and water ad libitum. The microisolators were kept in an environmentally controlled isolation room. For ts1 infection, 4-day-old mice were inoculated intraperitoneally with 0.1 ml of vehicle (mock infection) or with 0.1 ml of a ts1 suspension containing 2×107 infectious units/ml. […] For GVT treatment, animals from the control and ts1 infected groups were divided into two groups each on the day of infection. Infected mice were then divided again into two groups, one of whose individuals received 0.9% normal saline, intraperitoneally, for five continuous days-a-week, followed by two resting days, until the end of the experiment, while the other half of the infected animals received freshly prepared GVT, delivered intraperitoneally at 200 mg/kg body weight/day in 0.9% normal saline. The uninfected mice were also divided into two groups, one receiving saline alone, and the other receiving GVT as described above. […] All mice were observed daily for clinical signs of disease, and the mice from all groups were sacrificed at 30 dpi.
Whole thymi that were to be used for Western blotting were removed, snap frozen in liquid nitrogen and stored at −80° C. until use. For immunohistochemistry, thymi were snap-frozen in liquid nitrogen in Optimal Cutting Temperature (OCT) embedding compound (Sakura Finetek USA, Torrance, Calif.). These experimental protocols were approved by The University of Texas M.D. Anderson Cancer Center's Institutional Animal Care and Use Committee. […]

[5] = tested on: H9 cells (HIV-infected or uninfected)
[6] = GVT intramuscularly, 400 mg per day

Nc1cccc2c(=O)[n-][nH]c(=O)c12.[Na+] [GVT, monosodium luminol]
viability of uninfected MT-4 cells ([1]; GVT added every day for 6 days of culture): increases the viability of uninfected cells
apoptosis of HIV-infected MT-4 cells ([1]; GVT added every day for 6 days, harvested at 6 dpi): significantly reduces apoptosis
survival of HIV-infected MT4 cells ([1]; HIV-1 infected, GVT-treated): the infected cells survive
Nrf2 levels in MT-4 cells ([1]; days 1-6 dpi, infected or not): an increase
viability of uninfected MT-4 cells ([1]; single dose on day 1): no effect on their viability
effect on uninfected MT-4 cells (proliferation) ([1]; uninfected, FIG. 9): mitogenic
patients with body temperature normalized on the 1st or 2nd day of treatment ([2]; 53 patients of 56): 94.6%
general weakness [2, 6]: disappeared on the 3rd day
time to positive effect [2, 6]: ≤ 24 h
intoxication ([2]; GVT intramuscularly, 400 mg per day, majority of patients): decrease in intoxication on the 1st and 2nd days
CD4-positive cells in the LP of intestinal villi [3]: present in the LP of villi
Ki67 staining pattern (cell cycling) of intestinal epithelium [3]: limited to the crypts
Nrf2 in intestinal epithelial cells (immunostaining) [3]: heavy loading with Nrf2
Nrf2 levels in intestinal tissues (Western blot) [3]: significantly upregulated
TSH expression pattern along crypt-villus axis (immunostaining) [3]: limited to the crypts
TSH level in intestinal lysates (Western blot) [3]: what appear to be normal TSH levels
cleaved caspase-3 in intestines (Western blot) [3]: absent
gPr80env accumulation in intestinal lysate (anti-gp70 Western blot) [3]: only gp70 was present
crypt-villus organization of small intestine (H&E and gp70 staining) ([3]; ip, 200 mg/kg/day): apparently normal crypt-villus organization
Nrf2-positive cells in thymic sections (gp70/Nrf2 double staining) ([4]; ts1-GVT mice, 30 dpi): large numbers of red cellular profiles (Nrf2-positive only)
thymic corticomedullary organization (H&E) ([4]; ts1-GVT mice, 30 dpi): normal corticomedullary organization
thymus weight ([4]; ts1-GVT mice, 30 dpi): no thymic weight loss
disease course: T cell loss, thymic atrophy, wasting, death [4]: delayed T cell loss and thymic atrophy for many weeks
disease course: T cell loss, thymic atrophy, wasting, death ([4]; listed as monosodium luminol): significantly delays thymic atrophy, wasting, and death
ROS in uninfected H9 cells [5]: does not dramatically reduce ROS
